Measurements from article PMC9395446, “First-in-human phase 1/1b study to evaluate sitravatinib in patients with advanced solid tumors” (Investigational New Drugs, 2022).

Test: Safety in phase 1/1b study (DLTs, TRAEs, TEAEs; CTCAE v4.03)
Type: in vivo, human
From the text: Safety assessments included evaluation of DLTs, AEs, physical examinations, vital sign measurements, electrocardiogram recordings and laboratory tests.
A DLT was defined as a grade ≥ 4 hematologic abnormality lasting ≥ 4 days; grade 3 thrombocytopenia with clinically significant bleeding; febrile neutropenia; clinically significant grade ≥ 3 non-hematologic AEs not related to underlying malignancy; intolerable grade 2 AEs; or toxicity resulting in an inability to deliver 80% of the dose during the first treatment cycle.
The safety population included all patients who received ≥ 1 dose of sitravatinib. […] The PK evaluable population included all patients with sufficient concentration-time data for PK parameter evaluation. The modified intent-to-treat (mITT) population included all phase 1b patients who received ≥ 1 dose of study drug.

[1] = safety population (N = 193), any grade

COCCNCc1ccc(-c2cc3nccc(Oc4ccc(NC(=O)C5(C(=O)Nc6ccc(F)cc6)CC5)cc4F)c3s2)nc1 [sitravatinib, Sitravatinib]
Abdominal pain TRAE, any grade (Phase 1): 0 n (%)
Abdominal pain TRAE, grade ≥3 (Phase 1): 0 n (%)
Anemia TEAE, any grade (Phase 1): 5 (15.6) n (%)
Anemia TEAE, grade ≥3 (Phase 1): 1 (3.1) n (%)
Any TEAE (Phase 1): 31 (96.9) n (%)
Any TRAE (Phase 1): 24 (75.0) n (%)
Asthenia TEAE, any grade (Phase 1): 4 (12.5) n (%)
Asthenia TEAE, grade ≥3 (Phase 1): 0 n (%)
Back pain TEAE, any grade (Phase 1): 8 (25.0) n (%)
Blood and lymphatic system disorders TEAE, any grade (Phase 1): 7 (21.9) n (%)
Blood and lymphatic system disorders TEAE, grade ≥3 (Phase 1): 2 (6.3) n (%)
Blood creatinine increased TEAE, any grade (Phase 1): 3 (9.4) n (%)
Blood creatinine increased TEAE, grade ≥3 (Phase 1): 0 n (%)
Cardiac disorders TEAE, any grade (Phase 1): 3 (9.4) n (%)
Cardiac disorders TEAE, grade ≥3 (Phase 1): 2 (6.3) n (%)
Constipation TEAE, any grade (Phase 1): 5 (15.6) n (%)
Constipation TEAE, grade ≥3 (Phase 1): 0 n (%)
Constipation TRAE, any grade (Phase 1): 2 (6.3) n (%)
Constipation TRAE, grade ≥3 (Phase 1): 0 n (%)
Cough TEAE, any grade (Phase 1): 12 (37.5) n (%)
Cough TEAE, grade ≥3 (Phase 1): 0 n (%)
Decreased appetite TEAE, any grade (Phase 1): 15 (46.9) n (%)
Decreased appetite TEAE, grade ≥3 (Phase 1): 1 (3.1) n (%)
Decreased appetite TRAE, any grade (Phase 1): 7 (21.9) n (%)
Decreased appetite TRAE, grade ≥3 (Phase 1): 0 n (%)
Dehydration TEAE, any grade (Phase 1): 5 (15.6) n (%)
Dehydration TEAE, grade ≥3 (Phase 1): 1 (3.1) n (%)
Diarrhea TEAE, any grade (Phase 1): 13 (40.6) n (%)
Diarrhea TEAE, grade ≥3 (Phase 1): 3 (9.4) n (%)
Diarrhea TRAE, any grade (Phase 1): 8 (25.0) n (%)
Diarrhea TRAE, grade ≥3 (Phase 1): 2 (6.3) n (%)
Dizziness TEAE, any grade (Phase 1): 5 (15.6) n (%)
Dizziness TRAE, any grade (Phase 1): 2 (6.3) n (%)
Dizziness TRAE, grade ≥3 (Phase 1): 0 n (%)
Dry mouth TEAE, any grade (Phase 1): 6 (18.8) n (%)
Dry mouth TEAE, grade ≥3 (Phase 1): 0 n (%)
Dry mouth TRAE, any grade (Phase 1): 4 (12.5) n (%)
Dry mouth TRAE, grade ≥3 (Phase 1): 0 n (%)
Dysphonia TEAE, any grade (Phase 1): 5 (15.6) n (%)
Dysphonia TEAE, grade ≥3 (Phase 1): 0 n (%)
Dysphonia TRAE, any grade (Phase 1): 2 (6.3) n (%)
Dysphonia TRAE, grade ≥3 (Phase 1): 0 n (%)
Dyspnea TEAE, any grade (Phase 1): 7 (21.9) n (%)
Dyspnea TEAE, grade ≥3 (Phase 1): 3 (9.4) n (%)
Edema peripheral TEAE, any grade (Phase 1): 7 (21.9) n (%)
Edema peripheral TEAE, grade ≥3 (Phase 1): 1 (3.1) n (%)
Endocrine disorders TEAE, any grade (Phase 1): 6 (18.8) 6 (18.8) n (%)
Fatigue TEAE, any grade (Phase 1): 17 (53.1) n (%)
Fatigue TEAE, grade ≥3 (Phase 1): 3 (9.4) n (%)
Fatigue TRAE, any grade (Phase 1): 13 (40.6) n (%)
Fatigue TRAE, grade ≥3 (Phase 1): 1 (3.1) n (%)
Gastrointestinal disorders TEAE, any grade (Phase 1): 25 (78.1) n (%)
Gastrointestinal disorders TEAE, grade ≥3 (Phase 1): 4 (12.5) n (%)
General disorders and administration site conditions TEAE, any grade (Phase 1): 21 (65.6) n (%)
General disorders and administration site conditions TEAE, grade ≥3 (Phase 1): 3 (9.4) n (%)
Headache TEAE, any grade (Phase 1): 9 (28.1) n (%)
Hypertension TEAE, any grade (Phase 1): 11 (34.4) n (%)
Hypertension TEAE, grade ≥3 (Phase 1): 6 (18.8) 6 (18.8) n (%)
Hypertension TRAE, any grade (Phase 1): 8 (25.0) n (%)
Hypertension TRAE, grade ≥3 (Phase 1): 5 (15.6) n (%)
Hypokalemia TEAE, any grade (Phase 1): 3 (9.4) n (%)
Hypokalemia TEAE, grade ≥3 (Phase 1): 0 n (%)
Hypomagnesemia TEAE, any grade (Phase 1): 3 (9.4) n (%)
Hypomagnesemia TEAE, grade ≥3 (Phase 1): 0 n (%)
Hyponatremia TEAE, any grade (Phase 1): 3 (9.4) n (%)
Hyponatremia TEAE, grade ≥3 (Phase 1): 3 (9.4) n (%)
Hypophosphatemia TEAE, any grade (Phase 1): 2 (6.3) n (%)
Hypophosphatemia TEAE, grade ≥3 (Phase 1): 1 (3.1) n (%)
Hypothyroidism TEAE, any grade (Phase 1): 6 (18.8) 6 (18.8) n (%)
Hypothyroidism TRAE, any grade (Phase 1): 3 (9.4) n (%)
Hypothyroidism TRAE, grade ≥3 (Phase 1): 0 n (%)
Infections and infestations TEAE, any grade (Phase 1): 16 (50.0) n (%)
Infections and infestations TEAE, grade ≥3 (Phase 1): 5 (15.6) n (%)
Injury, poisoning, procedural complications TEAE, any grade (Phase 1): 4 (12.5) n (%)
Injury, poisoning, procedural complications TEAE, grade ≥3 (Phase 1): 0 n (%)
Investigations TEAE, any grade (Phase 1): 16 (50.0) n (%)
Investigations TEAE, grade ≥3 (Phase 1): 6 (18.8) n (%)
Lipase increased TEAE, any grade (Phase 1): 3 (9.4) n (%)
Lipase increased TEAE, grade ≥3 (Phase 1): 1 (3.1) n (%)
Metabolism and nutrition disorders TEAE, any grade (Phase 1): 21 (65.6) n (%)
Metabolism and nutrition disorders TEAE, grade ≥3 (Phase 1): 4 (12.5) n (%)
Musculoskeletal and connective tissue disorders TEAE, any grade (Phase 1): 19 (59.4) n (%)
Nausea TEAE, any grade (Phase 1): 13 (40.6) n (%)
Nausea TEAE, grade ≥3 (Phase 1): 1 (3.1) n (%)
Nausea TRAE, any grade (Phase 1): 6 (18.8) n (%)
Nausea TRAE, grade ≥3 (Phase 1): 0 n (%)
Neoplasms benign, malignant, unspecified TEAE, any grade (Phase 1): 3 (9.4) n (%)
Neoplasms benign, malignant, unspecified TEAE, grade ≥3 (Phase 1): 3 (9.4) n (%)
Nervous system disorders TEAE, any grade (Phase 1): 14 (43.8) n (%)
PPE syndrome TEAE, any grade (Phase 1): 4 (12.5) n (%)
PPE syndrome TEAE, grade ≥3 (Phase 1): 1 (3.1) n (%)
PPE syndrome TRAE, any grade (Phase 1): 4 (12.5) n (%)
PPE syndrome TRAE, grade ≥3 (Phase 1): 1 (3.1) n (%)
Pain in extremity TEAE, any grade (Phase 1): 2 (6.3) n (%)
Proteinuria TEAE, any grade (Phase 1): 2 (6.3) n (%)
Proteinuria TRAE, any grade (Phase 1): 2 (6.3) n (%)
Proteinuria TRAE, grade ≥3 (Phase 1): 0 n (%)
Psychiatric disorders TEAE, any grade (Phase 1): 7 (21.9) n (%)
Psychiatric disorders TEAE, grade ≥3 (Phase 1): 1 (3.1) n (%)
Rash TEAE, any grade (Phase 1): 5 (15.6) n (%)
Rash TEAE, grade ≥3 (Phase 1): 0 n (%)
Rash TRAE, any grade (Phase 1): 4 (12.5) n (%)
Rash TRAE, grade ≥3 (Phase 1): 0 n (%)
Renal and urinary disorders TEAE, any grade (Phase 1): 9 (28.1) n (%)
Respiratory, thoracic and mediastinal disorders TEAE, any grade (Phase 1): 22 (68.8) n (%)
Respiratory, thoracic and mediastinal disorders TEAE, grade ≥3 (Phase 1): 4 (12.5) n (%)
Serious TEAE (Phase 1): 9 (28.1) n (%)
Serious TRAE (Phase 1): 3 (9.4) n (%)
Skin and subcutaneous tissue disorders TEAE, any grade (Phase 1): 21 (65.6) n (%)
Skin and subcutaneous tissue disorders TEAE, grade ≥3 (Phase 1): 1 (3.1) n (%)
Stomatitis TEAE, any grade (Phase 1): 4 (12.5) n (%)
Stomatitis TEAE, grade ≥3 (Phase 1): 0 n (%)
Stomatitis TRAE, any grade (Phase 1): 3 (9.4) n (%)
Stomatitis TRAE, grade ≥3 (Phase 1): 0 n (%)
TEAE grade ≥3 (Phase 1): 20 (62.5) n (%)
TEAE leading to death (Phase 1): 3 (9.4) n (%)
TEAE leading to discontinuation (Phase 1): 5 (15.6) n (%)
TEAE leading to treatment modification (Phase 1): 13 (40.6) n (%)
TRAE grade ≥3 (Phase 1): 10 (31.3) n (%)
TRAE leading to death (Phase 1): 0 n (%)
TRAE leading to discontinuation (Phase 1): 2 (6.3) n (%)
TRAE leading to treatment modification (Phase 1): 12 (37.5) n (%)
UTI TEAE, any grade (Phase 1): 3 (9.4) n (%)
UTI TEAE, grade ≥3 (Phase 1): 2 (6.3) n (%)
Vascular disorders TEAE, any grade (Phase 1): 13 (40.6) n (%)
Vascular disorders TEAE, grade ≥3 (Phase 1): 6 (18.8) 6 (18.8) n (%)
Vomiting TEAE, any grade (Phase 1): 11 (34.4) n (%)
Vomiting TEAE, grade ≥3 (Phase 1): 1 (3.1) n (%)
Vomiting TRAE, any grade (Phase 1): 6 (18.8) n (%)
Vomiting TRAE, grade ≥3 (Phase 1): 0 n (%)
Weight decreased TEAE, any grade (Phase 1): 4 (12.5) n (%)
Weight decreased TEAE, grade ≥3 (Phase 1): 0 n (%)
Weight decreased TRAE, any grade (Phase 1): 2 (6.3) n (%)
Weight decreased TRAE, grade ≥3 (Phase 1): 0 n (%)
Recommended dose for further exploration (QD, defined in phase 1b due to tolerability): 120 mg
Maximum tolerated dose (MTD) (daily (QD), phase 1 dose escalation, mTPI method): 150 mg
TRAE leading to death (cardiac arrest) (overall population): 0.5%
Patients with DLT (phase 1, 80 mg): one
Patients with DLT (phase 1, 200 mg): three
DLT-evaluable phase 1 patients with a DLT (phase 1, 10–200 mg): 14.3%
DLT-evaluable phase 1 patients with a DLT (n/N) (phase 1, 10–200 mg): 4/28
Each reported DLT (fatigue, mucosal inflammation, peripheral sensory neuropathy, PPE syndrome), share of phase 1 population (phase 1, n = 1 each): 3.6%
Discontinuation due to diarrhea, nausea and fatigue (each) (safety population (N = 193)): 2.1%
Grade ≥ 3 TRAE diarrhea (safety population (N = 193)): 10.4%
Grade ≥ 3 TRAE fatigue (safety population (N = 193)): 7.3%
Grade ≥ 3 TRAE hypertension (safety population (N = 193)): 20.7%
Patients discontinued due to TRAEs (safety population (N = 193)): 13.5%
Patients with any TRAE (safety population (N = 193)): 90.2%
Patients with grade ≥ 3 TRAEs (safety population (N = 193)): 53.4%
TRAEs leading to treatment modification (dose reduction or interruption) (safety population (N = 193)): 62.2%
Treatment modification due to PPE syndrome (safety population (N = 193)): 11.9%
Treatment modification due to diarrhea (safety population (N = 193)): 17.6%
Treatment modification due to fatigue (safety population (N = 193)): 15.0%
Treatment modification due to hypertension (safety population (N = 193)): 15.0%
TRAE diarrhea [1]: 50.8%
TRAE fatigue [1]: 43.0%
TRAE hypertension [1]: 40.4%
TRAE nausea [1]: 30.1%
